Legend:
[1] = Serum Vitamin E after nasal administration or drench (Example VI); type: in vivo, beef steers
Experimental: (§1) These five treatments were:
(§2) Treatments were applied and cattle were bled via jugular venipuncture at 0, 6, and 24 hours post-dosing.

[2] = Serum Vitamin A after nasal administration or drench (Example V); type: in vivo, beef steers
Experimental: as §1, §2

Q: Which results are given for Vitamin E?
A: Average Serum Level - Vitamin E ([1]; Treatment 2: positive control, 15 ml drench, 1200 IU Vitamin E in 15 ml water, 6 Hours): 1.8 micrograms/ml; Average Serum Level - Vitamin E ([1]; Treatment 2: positive control, 15 ml drench, 1200 IU Vitamin E in 15 ml water, 24 Hours): 2.0 micrograms/ml; Average Serum Level - Vitamin E ([1]; Treatment 2: positive control, 15 ml drench, 1200 IU Vitamin E in 15 ml water, time 0): 1.8 micrograms/ml; Average Serum Level - Vitamin E ([1]; Treatment 3: solid form vitamins in 2 ml ethanol, 1,000,000 IU A, 100,000 IU D, 1000 IU E, 1 ml per nostril, 6 Hours): 2.7 micrograms/ml; Average Serum Level - Vitamin E ([1]; Treatment 3: solid form vitamins in 2 ml ethanol, 1,000,000 IU A, 100,000 IU D, 1000 IU E, 1 ml per nostril, 24 Hours): 2.8 micrograms/ml; Average Serum Level - Vitamin E ([1]; Treatment 3: solid form vitamins in 2 ml ethanol, 1,000,000 IU A, 100,000 IU D, 1000 IU E, 1 ml per nostril, time 0): 2.7 micrograms/ml; Average Serum Level - Vitamin E ([1]; Treatment 4: vitamin E, A, D oils, Tween 80, nicotinic acid, Carbopol 934P, Pemulen TR2, NaOH, water, 1000 IU E, 1 ml per nostril, 6 Hours): 2.5 micrograms/ml; Average Serum Level - Vitamin E ([1]; Treatment 4: vitamin E, A, D oils, Tween 80, nicotinic acid, Carbopol 934P, Pemulen TR2, NaOH, water, 1000 IU E, 1 ml per nostril, 24 Hours): 2.7 micrograms/ml; Average Serum Level - Vitamin E ([1]; Treatment 4: vitamin E, A, D oils, Tween 80, nicotinic acid, Carbopol 934P, Pemulen TR2, NaOH, water, 1000 IU E, 1 ml per nostril, time 0): 2.7 micrograms/ml; Average Serum Level - Vitamin E ([1]; Treatment 5: vitamin E, A, D oils, Tween 80, Pemulen TR2, NaOH, water, 1000 IU E, 1 ml per nostril, 6 Hours): 2.0 micrograms/ml; Average Serum Level - Vitamin E ([1]; Treatment 5: vitamin E, A, D oils, Tween 80, Pemulen TR2, NaOH, water, 1000 IU E, 1 ml per nostril, 24 Hours): 2.2 micrograms/ml; Average Serum Level - Vitamin E ([1]; Treatment 5: vitamin E, A, D oils, Tween 80, Pemulen TR2, NaOH, water, 1000 IU E, 1 ml per nostril, time 0): 2.1 micrograms/ml; course of serum level of Vitamin E ([1]; Treatment #3, nasal (FIG. 9, curve 920)): increased from 6 hours to 24 hours post-dosing; course of serum level of Vitamin E ([1]; Treatment #5, nasal (FIG. 9, curve 910)): increased from 6 hours to 24 hours post-dosing

Q: Which “Average Serum Levels-Vitamin A” value ([2]; Treatment 2: positive control, 15 ml drench, 1,000,000 IU Vitamin A in 15 ml water, 6 Hours) does the source give for Vitamin A here?
A: 277 ng/mL

Q: And the “Average Serum Levels-Vitamin A” value ([2]; Treatment 2: positive control, 15 ml drench, 1,000,000 IU Vitamin A in 15 ml water, 24 Hours)?
A: 247 ng/mL

Q: What about the “Average Serum Levels-Vitamin A” value ([2]; Treatment 2: positive control, 15 ml drench, 1,000,000 IU Vitamin A in 15 ml water, time 0) of the same substance?
A: 230 ng/mL

Q: And the “Average Serum Levels-Vitamin A” value ([2]; Treatment 3: solid form vitamins in 2 ml ethanol, 1,000,000 IU A, 100,000 IU D, 1000 IU B, 1 ml per nostril, 6 Hours)?
A: 344 ng/mL

Q: And the “Average Serum Levels-Vitamin A” value ([2]; Treatment 3: solid form vitamins in 2 ml ethanol, 1,000,000 IU A, 100,000 IU D, 1000 IU B, 1 ml per nostril, 24 Hours)?
A: 326 ng/mL

Q: And the “Average Serum Levels-Vitamin A” value ([2]; Treatment 3: solid form vitamins in 2 ml ethanol, 1,000,000 IU A, 100,000 IU D, 1000 IU B, 1 ml per nostril, time 0)?
A: 302 ng/mL

Q: And the “Average Serum Levels-Vitamin A” value ([2]; Treatment 4: vitamin E, A, D oils, Tween 80, nicotinic acid, Carbopol 934P, Pemulen TR2, NaOH, water, 1,000,000 IU A, 1 ml per nostril, 6 Hours)?
A: 314 ng/mL

Q: What about the “Average Serum Levels-Vitamin A” value ([2]; Treatment 4: vitamin E, A, D oils, Tween 80, nicotinic acid, Carbopol 934P, Pemulen TR2, NaOH, water, 1,000,000 IU A, 1 ml per nostril, 24 Hours) of the same substance?
A: 321 ng/mL

Q: And the “Average Serum Levels-Vitamin A” value ([2]; Treatment 4: vitamin E, A, D oils, Tween 80, nicotinic acid, Carbopol 934P, Pemulen TR2, NaOH, water, 1,000,000 IU A, 1 ml per nostril, time 0)?
A: 321 ng/mL

Q: And the “Average Serum Levels-Vitamin A” value ([2]; Treatment 5: vitamin E, A, D oils, Tween 80, Carbopol TR2, NaOH, water, 1,000,000 IU A, 1 ml per nostril, 6 Hours)?
A: 349 ng/mL

Q: What about the “Average Serum Levels-Vitamin A” value ([2]; Treatment 5: vitamin E, A, D oils, Tween 80, Carbopol TR2, NaOH, water, 1,000,000 IU A, 1 ml per nostril, 24 Hours) of the same substance?
A: 353 ng/mL

Q: And the “Average Serum Levels-Vitamin A” value ([2]; Treatment 5: vitamin E, A, D oils, Tween 80, Carbopol TR2, NaOH, water, 1,000,000 IU A, 1 ml per nostril, time 0)?
A: 343 ng/mL

Q: And the “course of serum level of Vitamin A” value ([2]; Treatment #3: nasal administration of Vitamin A/ethanol solution (FIG. 8, curve 810))?
A: decreased from 6 to 24 hours post-dosing after an initial increase in the first 6 hours

Q: What about the “course of serum level of Vitamin A” value ([2]; Treatment #4, nasal (FIG. 8, curve 830)) of the same substance?
A: increased continuously from 6 hours to 24 hours post-dosing

Q: And the “course of serum level of Vitamin A” value ([2]; Treatment #5, nasal (FIG. 8, curve 820))?
A: increased from 0 hours to 24 hours post-dosing
